According to patent US7910723B2, “IG20 splice variants therapeutics for cancer” (The Board of Trustees of the University of Illinois, priority 2006, dated 2011):

How the values were obtained:
Type in all cases: cell-based
[1] = system: HeLa cells; experiment: Spontaneous apoptosis of HeLa cells (Hoechst nuclear condensation, TMRM mitochondrial depolarization); settings: 72 hours post-transduction
Description: FIG. 1 illustrates effect of down-modulation of IG20-SVs in HeLa cells. (A) Summary of results showing percentage of cells with increased nuclear condensation as measured by Hoechst staining from three independent experiments. The P value was <0.005 for all test groups. Hoechst Staining-72 hours post-transduction was performed and HeLa cells were collected and stained with 1 μg/mL of Hoechst and subjected to FACS analysis. Percentages of highly positive cells (apoptotic cells) are indicated on the histograms. (B) Summary of results showing percentage of cells with increased mitochondrial depolarization from three independent experiments. The P value was <0.005 for all test groups. The data were collected from only GFP positive cells. […] Loss of staining as a marker of mitochondrial depolarization was detected by FACS.
Spontaneous cell death was determined by nuclear condensation (Hoechst 33342) and loss of mitochondrial membrane potential (TMRM staining) (FIG. 1A-B). […] Whether the underlying cause of increased spontaneous apoptosis was similar to that noted after induction of apoptosis by the extrinsic (caspase-8 activation) or the intrinsic (caspase-9 activation) pathway was analyzed by determining the percentage of cells that harbored active caspases 8 and 9 using flow cytometry.
Hoechst Staining. […] Cells with condensed chromatin were analyzed using a BD-LSR (Becton Dickinson, N.J.). […]

[2] = system: IG20-SVs; experiment: RT-PCR of IG20-SVs in shRNA-transduced PA-1 cells; settings: PA-1, 72 hours post-transduction
Description: The effects of IG20 down-modulation in PA-1 cells were analyzed. Down-modulation of endogenous IG20 in PA-1 cells was analyzed. RT-PCR of IG20-SVs using F2-B2 primers from PA-1 cells 72 hours post-transduction was performed. Amplification of only IG20pa and MADD using 13L-F and B2 primers was performed. Nuclear Condensation was also determined. 72 hours post-transduction, PA-1 cells were stained with Hoechst stain and analyzed by FACS. Mitochondrial Depolarization was performed. 72 hours post transduction, PA-1 cells were stained with TMRM and analyzed by FACS.
RT-PCR. Total RNA was extracted from 1×10^6 transduced cells using Trizol (Invitrogen Life Technologies, Carlsbad, Calif.), and 1 jig of RNA was used for RT-PCR using the Super-Script One-Step RT-PCR system (Invitrogen Life Technologies, Carlsbad, Calif.). Briefly, the cDNAs were synthesized at 50° C. for 30 minutes followed by incubation at 94° C. for 2 minutes. Subsequently, 35 cycles of PCR were carried out with de-naturation at 95° C. for 30 seconds, annealing at 55° C. for 30 seconds and extension at 72° C. for 1 minute. This was followed by a final incubation at 72° C. for 7 minutes. The sequences of F2-B2 and GAPDH primers were as published (Al-Zoubi et al., (2001), J Biol Chem, 276 (50), 47202-11.). 13L-Forward (5′[…]3′ (SEQ ID NO: 15)) and B2-reverse primers were used to amplify only MADD and IG20pa. […]

[3] = system: DR4; experiment: Association of endogenous MADD with DR4 in HeLa cells (immunoprecipitation); settings: LY 10 μM 1 h
Description: (A) Phosphorylation status of MADD could influence its binding to DR4. HEK293 cells were transfected with wtMADD or MADD mutants. 36 h after transfection, the cells were harvested for immunoprecipitation using an anti-DR4 antibody followed by immunoblotting using an anti-YFP antibody to detect exogenous MADD. The membrane was reprobed with an anti-DR4 antibody to show the protein loading. (B) PI3K can influence the association of exogenous MADD with DR4. HEK293 cells were transfected with wtMADD. Twenty four hours after transfection, the cells were serum starved for 20 h. Further, they were treated with LY (10 μM) for 1 h, IGF-1 (150 ng/ml) for 20 minutes. Immunoprecipitation using an anti-DR4 antibody was followed by immunoblotting using anti-YFP or anti-DR4 antibody. (C) Akt can influence exogenous MADD association with DR4. HEK293 cells were co-transfected with wtMADD along with DN-Akt or the empty vector pcDNA3.1 (pcDNA). Thirty six hours after transfection, the cells were harvested for immunoprecipitation using anti-DR4 antibody followed by immunoblotting with an anti-YFP or an anti-DR4 antibody. (D) PI3K can influence the association of endogenous MADD with DR4. HeLa cells were serum starved for 20 h, then treated with LY (10 μM) for 1 h, IGF-1 (150 ng/ml) for 20 minutes. […]
Immunoprecipitation. […] Immunoblots were prepared and analysed as described above.

Row | Molecule | Spontaneous apoptosis (nuclear condensation, mitochondrial depolarization) [1] | Down-modulation of endogenous IG20-SVs (RT-PCR) [2] | Interaction between endogenous MADD and DR4 [3]
1 | 13L-shRNA: shRNA targeting exon 13L (IG20, MADD), 5′ CGGCGAATCTATGACAATC-3′ (SEQ ID NO: 4) | consistently higher in 13L-treated, relative to Mid-treated, cells | abrogated only MADD expression | –
2 | O=c1cc(N2CCOCC2)oc2c(-c3ccccc3)cccc12 [LY] | – | – | reduced
